Data taken from patent US20110055943A1, “NOVEL THERAPEUTIC TARGETS IN INFLAMMATORY BOWEL DISEASE” (SALIX PHARMACEUTICALS, LTD., priority 2007, published 2011).

Tests used:
[1] = test system: CYP3A4; conditions: human hepatocytes; cited from earlier work
[2] = test system: PXR target genes (CYP3A11, GSTA1, MRP2, OATP2); experiment: qPCR analysis of PXR target genes in hPXR mice
Description: RIF, a specific human PXR ligand, was used as positive control at 25 mg/kg/day (p.o.) for 3 days. […] Liver and small intestine were collected and frozen at −80° C. for further analysis.
RNA was extracted from different tissues using TRIzol reagent (Invitrogen, Carlsbad, Calif.). qPCR was performed using cDNA generated from 1 μg total RNA with SuperScript II Reverse Transcriptase kit (Invitrogen). PCR reactions were carried out using SYBR green PCR master mix (SuperArray) in an ABI Prism 7900HT Sequence Detection System (Applied Biosystems, Foster City, Calif.). Values were quantified using the Comparative CT method, and samples normalized to β-actin.

[3] = target: T1, PPARα (Mus musculus, UniProt P23204); experiment: Cell-based reporter assay, transfected HCT116 cells, dual luciferase; conditions: 10 μM, 24 h
T1 construct: expressed in transfected cells; host or cells: HCT116
T1 sequence (P23204 1-468): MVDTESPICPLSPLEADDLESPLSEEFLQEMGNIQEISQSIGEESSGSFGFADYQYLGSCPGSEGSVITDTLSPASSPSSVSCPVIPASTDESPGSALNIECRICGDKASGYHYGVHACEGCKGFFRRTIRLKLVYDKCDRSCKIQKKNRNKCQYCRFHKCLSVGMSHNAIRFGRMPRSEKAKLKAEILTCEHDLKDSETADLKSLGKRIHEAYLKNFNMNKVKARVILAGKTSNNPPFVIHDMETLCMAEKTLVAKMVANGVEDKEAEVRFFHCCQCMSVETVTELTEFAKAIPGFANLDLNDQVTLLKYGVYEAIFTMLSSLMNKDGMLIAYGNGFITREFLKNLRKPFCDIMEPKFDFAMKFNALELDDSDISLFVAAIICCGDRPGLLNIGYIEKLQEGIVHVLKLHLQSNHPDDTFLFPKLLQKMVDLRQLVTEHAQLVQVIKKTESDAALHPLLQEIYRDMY
Description: (§1) A hepG2 cell line (DPX2) with stable expression of recombinant human PXR and a PXR-response element cloned in a luciferase vector was obtained from Puracyp Inc. (Carlsbad, Calif.). The construction and validation of the cell lines were reported previously (Yueh et al., 2005). The cells were seeded according to the distributor's instruction. […] The activation of PXR was determined by measuring the firefly luciferase activity 24 h later, followed by normalization of luciferase activity by protein concentrations. For cell-based reporter assay of nuclear receptors CAR, PPARα, PPARγ, and FXR, HCT116 cells were plated on 24-well plates (5×10^4 cells/well, cultured in DMEM containing 10% FBS), and transfected with the various expression vectors using Fugene transfection reagent (Roche, Indianapolis, Ind.). The mouse PPAR and CAR vectors were described in previous reports (Kliewer et al., 1992; Swales et al., 2005). The mouse FXR vector was provided by Dr Christopher J. Sinal. […] TCPOBOP (250 nM), Wy-14,643 (10 μM), rosiglitazone (10 μM), and GW4064 (25 μM) were used as positive controls respectively for mouse CAR, PPARα, PPARγ, and FXR. A standard dual luciferase assay was used and normalized to a cotransfected control reporter (Promega, Madison, Wis.). Each in vitro assay was repeated at least three times.

[4] = target: T2, CAR (Mus musculus, UniProt O35627); experiment: as above; conditions: 10 μM, 24 h
T2 construct: expressed in transfected cells; host or cells: HCT116
T2 sequence (O35627 1-358): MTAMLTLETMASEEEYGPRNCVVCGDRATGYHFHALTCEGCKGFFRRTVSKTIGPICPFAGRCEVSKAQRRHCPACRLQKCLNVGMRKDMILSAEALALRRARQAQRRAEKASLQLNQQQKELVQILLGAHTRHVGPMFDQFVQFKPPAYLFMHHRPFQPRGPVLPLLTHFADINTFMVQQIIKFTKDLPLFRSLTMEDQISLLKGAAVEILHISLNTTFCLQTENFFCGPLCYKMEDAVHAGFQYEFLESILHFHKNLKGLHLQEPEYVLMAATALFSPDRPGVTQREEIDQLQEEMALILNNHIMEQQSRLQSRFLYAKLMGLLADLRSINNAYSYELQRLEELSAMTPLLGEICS
Description: as §1

[5] = test system: PXR target genes (CYP3A11, GSTA1, MRP2, OATP2); experiment: qPCR analysis of PXR target genes in Pxr-null mice; assay type: in vivo
[6] = test system: CYP3A4; conditions: two clinical studies; cited from earlier work
[7] = Serum pharmacokinetics of RIF and RIFax in mice (p.o., i.p., i.v.; LC-MS/MS); assay type: in vivo
Description: The maximum concentration in serum (Cmax) was obtained from the original data. […] Intestinal contents were weighted, and homogenized in methanol (100 mg/ml). The homogenate was centrifuged at 14,000 rpm for 10 min at 4° C.
The mass spectrometer was operated in the turbo ion spray mode with positive ion detection. The turbo ion spray temperature was maintained at 300° C., and a voltage of 4.8 kV was applied to the sprayer needle. N2 was used as the turbo ion spray and nebulizing gas.

[8] = small intestine, 25 mg/kg/day p.o. 3 days

COC1/C=C/OC2(C)Oc3c(C)c(O)c4c(O)c(c5c(nc6cc(C)ccn65)c4c3C2=O)NC(=O)/C(C)=C\C=C\C(C)C(O)C(C)C(O)C(C)C(OC(C)=O)C1C (stereo not shown) [RIFax, 4-Deoxy-4′-methylpyrido[1′,2′-1,2]imidazo[5,4-c]rifamycin SV]
CYP3A4 in a human hepatocyte model [1]: induction | CYP3A11, GSTA1, MRP2 and OATP2 mRNAs in small intestine ([2]; 25 mg/kg/day p.o. 3 days): all up-regulated | MRP2 in the gut ([2]; 25 mg/kg/day p.o. 3 days): only modestly induced | PXR target genes in the intestine ([2]; intestine, oral treatment): significant induction | GSTA1 in liver ([2]; liver, 25 mg/kg/day p.o. 3 days): increased | effect on hepatic PXR target genes ([2]; liver, oral treatment): no significant effect | Intestinal CYP3A11 increase compared to vehicle-treated mice [2, 8]: ~4 fold | Intestinal GSTA1 mRNA increase [2, 8]: 172% | Intestinal OATP2 mRNA increase [2, 8]: 3.4 fold | intestinal MRP2 mRNA [2, 8]: significant up-regulation | change in luciferase activity in the presence of PPARα [3]: no significant change | change in luciferase activity in the presence of CAR [4]: no significant change | effect on hepatic PXR target genes ([5]; liver, oral treatment): no significant effect | Intestinal CYP3A11 expression [5, 8]: no significant change | Intestinal GSTA1 mRNA increase [5, 8]: 74% | Intestinal OATP2 mRNA [5, 8]: no significant induction | intestinal MRP2 mRNA [5, 8]: no change | effect on intestinal or hepatic CYP3A4 [6]: no significant effect | effect on the pharmacokinetics of MDZ and of ethinyl estradiol and norgestimate [6]: did not alter | AUC compared with RIF ([7]; mice, 10 mg/kg i.v.): -low | T1/2 compared with RIF ([7]; mouse, in vivo, iv, 10 mg/kg): ultra-short | Cmax ([7]; mouse, serum, mice, single oral dose 10 mg/kg, read-out: Cmax of serum): 40 nM
